For seven compounds, TGI and GI50 results are on record in PubChem BioAssay (NCI).

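Values below derive from 48-hour exposures of cells grown in 96-well plates, with endpoints linearly interpolated between the two concentrations bracketing the appropriate inhibition level. Here, GI50 denotes the concentration required for 50% inhibition of growth. Definition used: TGI = concentration required for complete inhibition of growth.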

Test systems include ACHN renal; COLO 205 colon; HCT-116 colon; HS 578T breast; HT29 colon; IGROV1 ovarian; MDA-MB-435; MOLT-4 leukemia; NCI-H226 lung; NCI/ADR-RES ovarian; RPMI-8226 leukemia; SF-539 CNS; SW-620 colon; T-47D breast; U251 CNS; UO-31 renal.
Holding throughout (test): DTP human tumour cell line panel, 48 h

Take `CC(C)C/C=C/C1=NN(c2cccc(S(=O)(=O)O)c2)C2(C1)SCC(=O)N2c1nc2ccccc2s1` (centres undefined): the TGI in the experiment with ACHN renal, in the experiment on COLO 205 colon, in the experiment on HCT-116 colon, in the experiment on HS 578T breast, in the experiment on HT29 colon and in the experiment with IGROV1 ovarian was more than 100 µM throughout. The TGI – broadly, the concentration at which net growth stops – in the experiment with MDA-MB-435 is 84.6 µM; with MOLT-4 leukemia it was more than 100 µM; in the experiment on NCI-H226 lung it was more than 100 µM; with NCI/ADR-RES ovarian, more than 100 µM; in the experiment on RPMI-8226 leukemia it was 49.6 µM; in the experiment with SF-539 CNS it was more than 100 µM. The TGI with SW-620 colon was more than 100 µM; in the experiment with T-47D breast, 47.2 µM; in the experiment on U251 CNS it was more than 100 µM; with UO-31 renal, more than 100 µM.

For the compound `NC(=O)NC(=O)c1cccc(NC(=O)CF)c1`, the TGI with ACHN renal, with COLO 205 colon, in the experiment on HCT-116 colon, with HS 578T breast, in the experiment with HT29 colon and with IGROV1 ovarian was more than 100 µM in each case. Besides, the TGI in the experiment on MDA-MB-435, with MOLT-4 leukemia, with NCI-H226 lung, in the experiment on NCI/ADR-RES ovarian, in the experiment on RPMI-8226 leukemia and with SF-539 CNS was more than 100 µM throughout. Moreover, the TGI with SW-620 colon was more than 100 µM; in the experiment with T-47D breast it was more than 100 µM; with U251 CNS, more than 100 µM; with UO-31 renal, 80.6 µM.

Turning to `COc1cccc2c1C(=O)c1ccc3cc(CCl)cc(O)c3c1C2=O`, the TGI stood at 0.84 µM in the experiment on ACHN renal; 0.467 µM with COLO 205 colon; 0.29 µM with HCT-116 colon; 2.32 µM in the experiment with HS 578T breast; 0.578 µM with HT29 colon; 1.54 µM in the experiment on IGROV1 ovarian. Moreover, the TGI in the experiment on MDA-MB-435 came to 0.46 µM; with MOLT-4 leukemia it was 2.88 µM; with NCI-H226 lung it was 1.78 µM; with NCI/ADR-RES ovarian, 1.39 µM; in the experiment with RPMI-8226 leukemia, 1.37 µM; in the experiment on SF-539 CNS it was 0.701 µM. In addition, the TGI worked out at 0.293 µM with SW-620 colon, 1.73 µM in the experiment on T-47D breast, 1.67 µM with U251 CNS and 1.14 µM in the experiment with UO-31 renal.

With `CCOC(=O)/C=C(\C(=O)OCC)n1ccc(=O)n(CC(=O)OCC)c1=O`, the TGI in the experiment on ACHN renal is 3.29 µM; in the experiment on COLO 205 colon, 3.16 µM; in the experiment with HCT-116 colon, 3.44 µM; in the experiment on HS 578T breast, 53.7 µM; with HT29 colon, 16.2 µM; in the experiment with IGROV1 ovarian, 19.3 µM. Moreover, the TGI was 16.4 µM in the experiment with MDA-MB-435; 4.62 µM with MOLT-4 leukemia; 12.8 µM in the experiment with NCI-H226 lung; 60.8 µM in the experiment with NCI/ADR-RES ovarian; 7.67 µM in the experiment with RPMI-8226 leukemia; 32.3 µM in the experiment on SF-539 CNS. Further, the total growth inhibition concentration (TGI) in the experiment on SW-620 colon was 2.72 µM; in the experiment with T-47D breast, 7.39 µM; with U251 CNS it was 19.5 µM; with UO-31 renal, 17.5 µM. Moreover, the GI50 (in general, the concentration at which growth is held to half of that of the control) is 2.81 µM in the experiment on RPMI-8226 leukemia and 1.42 µM in the experiment with SW-620 colon.

Regarding `NC(CCC(=O)O)(CCC(=O)O)CCC(=O)O`, the TGI in the experiment on ACHN renal, in the experiment on COLO 205 colon, in the experiment with HCT-116 colon, in the experiment on HS 578T breast, with HT29 colon and in the experiment on IGROV1 ovarian was more than 100 µM in each case. In addition, the concentration for total growth inhibition (TGI) with MDA-MB-435, in the experiment on MOLT-4 leukemia, in the experiment on NCI-H226 lung, with NCI/ADR-RES ovarian, in the experiment on RPMI-8226 leukemia and with SF-539 CNS was more than 100 µM in each case. For the same compound, the concentration for total growth inhibition (TGI) with SW-620 colon, in the experiment on T-47D breast, in the experiment with U251 CNS and with UO-31 renal was more than 100 µM each time.

As for `CC(=O)N(CN1C(=O)CCC1C(=O)O)c1cccc(O)c1` (centres undefined), the TGI in the experiment on ACHN renal, in the experiment on COLO 205 colon, with HCT-116 colon, in the experiment on HS 578T breast, in the experiment with HT29 colon and with IGROV1 ovarian was more than 100 µM throughout. In addition, the total growth inhibition concentration (TGI) in the experiment with MDA-MB-435, with MOLT-4 leukemia, in the experiment on NCI-H226 lung, in the experiment with NCI/ADR-RES ovarian, in the experiment on RPMI-8226 leukemia and with SF-539 CNS was more than 100 µM in each case. In addition, the TGI with SW-620 colon, in the experiment on T-47D breast, with U251 CNS and in the experiment on UO-31 renal was more than 100 µM each time.

Take `Nc1nc(N)c2[nH]cnc2n1` (tested in a mixture with another compound): the TGI was 48.6 µM with ACHN renal; more than 100 µM with COLO 205 colon; 41.8 µM with HCT-116 colon; more than 100 µM in the experiment on HS 578T breast; more than 100 µM in the experiment on HT29 colon; more than 100 µM in the experiment with IGROV1 ovarian. Moreover, the TGI in the experiment with MDA-MB-435 is 77.5 µM; in the experiment with MOLT-4 leukemia, more than 100 µM; in the experiment on NCI-H226 lung it was more than 100 µM; in the experiment on NCI/ADR-RES ovarian it was more than 100 µM; in the experiment with RPMI-8226 leukemia, more than 100 µM; in the experiment on SF-539 CNS, more than 100 µM. The TGI was more than 100 µM in the experiment with SW-620 colon, 40 µM in the experiment with T-47D breast, more than 100 µM in the experiment on U251 CNS and 58.4 µM in the experiment with UO-31 renal.
